Data from PubChem BioAssay AID687022 (Broad Institute, 2013).
Active and inactive are the calls of the source.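 How the source made its calls: active means Fitted curve of melting temperature shift crosses the 1.0 threshold at or below the sample's highest valid tested concentration; inconclusive means Flat fit with activity 30 to 70, or invalid fit; inactive means Opposite direction, flat within 30, or no crossing.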

target: Fibroblast growth factor 22 (Homo sapiens) (UniProt Q9HCT0); experiment: binders of human FGF22 protein, dose response, FGF22 synaptogenesis inhibitor project, biophysical, thermal shift, cherry-pick (AID 687022); conditions: recombinant FGF22 thermal shift, SYPRO orange melting
Sequence (Q9HCT0 whole entry, looked up): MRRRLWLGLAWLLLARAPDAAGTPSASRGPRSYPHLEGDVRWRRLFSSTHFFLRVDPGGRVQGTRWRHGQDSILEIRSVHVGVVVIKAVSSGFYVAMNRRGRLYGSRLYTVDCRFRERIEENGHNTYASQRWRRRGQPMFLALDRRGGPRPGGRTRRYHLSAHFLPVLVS

| SMILES | AbsAC1 (concentration giving Tm-shift threshold 1.0) |
| --- | --- |
| COc1ccc(NC(=O)COC(=O)Cc2c[nH]c3ccccc23)cc1Cl | 2.76 µM |
| CC(=O)Nc1ccc(NC(=O)Nc2ccccc2)cc1 | 2.14 µM |
| CC(=O)c1ccc(NC(=O)Nc2cccnc2)cc1 | 7.05 µM |
| C/C=C/c1ccc2c(c1)O[C@@H](CN(C)C(=O)Nc1ccc(F)cc1)[C@@H](C)CN([C@H](C)CO)S2(=O)=O | 14.8 µM |
| C[C@H]1CN([C@@H](C)CO)S(=O)(=O)c2ccc(C3=CCCC3)cc2O[C@H]1CN(C)C(=O)Nc1ccc2c(c1)OCO2 | 22.9 µM |
| C[C@H](CO)N1C[C@H](C)[C@H](CN(C)C(=O)Nc2ccc3c(c2)OCO3)Oc2cc(C3=CCCC3)ccc2S1(=O)=O | 36.2 µM |
| COC(=O)C1=C(CS(=O)(=O)c2cc(OC)ccc2OC)NC(=O)NC1c1ccc(O)c(OC)c1 (configuration not stated) | 3.09 µM |
| CC(C)(C)c1ccc(C2CC2C(=O)N/N=C\c2ccc[nH]2)cc1 (configuration not stated) | 14.3 µM |
| COc1ccc(-c2ccc([C@H]3[C@H]4CN(C(=O)c5ccc6c(c5)OCO6)CCCCN4[C@H]3CO)cc2)cc1 | 15.9 µM |
| COc1ccc(C)cc1NS(=O)(=O)c1ccc(NS(=O)(=O)c2ccc(NC(C)=O)cc2)cc1 | 3.7 µM |
| Cc1ccc(CCNc2ncnc(Cl)c2N)cc1 | 6.55 µM |
| CCOc1cc(C=NNC(=O)c2cccc(S(=O)(=O)N3CCCC3)c2)ccc1O | 6.84 µM |
| CC1(C(=O)NS(=O)(=O)Cc2cccc(Cl)c2)CCN1C(=O)C1(c2ccc(Cl)cc2)CCC1 (configuration not stated) | > 10 µM (inactive) |
| COc1ccccc1NC(=O)Nc1cccc(NC(C)=O)c1 | 7.52 µM |
| Cc1ccc(NC(=O)CN2C(=O)NC(Cc3c[nH]c4ccccc34)C2=O)cc1 (configuration not stated) | 16.2 µM |
| O=c1c2cc([N+](=O)[O-])cc([N+](=O)[O-])c2[nH]n1-c1ccccc1 | 4.84 µM |
| C/C(=N\NC(=O)c1ccc(NS(=O)(=O)c2cccs2)cc1)c1cccs1 | 3.06 µM |
| Nc1ccc(C(=O)Nc2ccc(OC(F)(F)C(F)F)c(NC(=O)c3ccc(N)cc3)c2)cc1 | 6.85 µM |
| O=C(C[C@H]1CC[C@@H]2[C@H](COC[C@H](O)CN2S(=O)(=O)c2cccc(Cl)c2)O1)Nc1ccccc1 | 1.93 µM |
| O=C(Nc1nccs1)C1CC(=O)N(c2ccc(F)cc2)C1 (configuration not stated) | 8.93 µM |
| O=S(=O)(O)c1cccc2cccc(Nc3ccccc3)c12 | 9.29 µM |

| SMILES | AbsAC1 (concentration giving Tm-shift threshold 1.0) |
| --- | --- |
| COc1cc(NS(=O)(=O)c2ccc(NS(=O)(=O)c3ccc(C)cc3)cc2)nc(OC)n1 | 3.69 µM |
| O=[N+]([O-])c1ccc(S(=O)(=O)Nc2nnc(C(F)(F)F)s2)cc1 | 4.67 µM |
| COc1cccc(C(=O)Nc2cccc(NC(=O)c3cccs3)c2)c1 | 1.72 µM |
| C/C(=N\NC(=O)COc1ccc(C)cc1C(C)C)c1cc2ccccc2o1 | 20.9 µM |
| NS(=O)(=O)c1cc(C(=O)NC2CCSc3ccccc32)ccc1Cl (configuration not stated) | 9.54 µM |
| CN1C(=O)c2cc(NC(=O)c3cccc(F)c3)ccc2OC[C@@H]2O[C@H](CC(=O)NCc3ccccc3)CC[C@@H]21 | 21 µM |
| CC(=O)c1c(C)nc(-c2ccc(OCC(=O)Nc3ccc(F)cc3)cc2)n1O | 16.3 µM |
| O=C(NN=Cc1ccc(O)cc1)c1ccccc1NS(=O)(=O)c1cccs1 | 5.76 µM |
| COc1ccc2o/c(=N\O)c(C(=O)Nc3ccc(C)cc3)cc2c1 | 28 µM |
| CC(C)(C)[S@@](=O)N1Cc2cc(C(=O)NCc3ccccc3F)nc(-c3cccc(-c4ccncc4)c3)c2[C@H]1CCO | > 38 µM (inactive) |
| COc1ccc(NC(=O)c2[nH]ncc2[N+](=O)[O-])cc1 | 17.9 µM |
| CN1C(=O)c2cc(NC(=O)c3cccc(F)c3)ccc2OC[C@@H]2O[C@H](CC(=O)NCC3CCCCC3)CC[C@@H]21 | 16.8 µM |
| O=C(Nc1ccc(F)cc1)N[C@@H]1CC[C@H](CCn2cc(-c3ccc(F)cc3)nn2)O[C@H]1CO | 13 µM |
| O=C(N/N=C/c1ccncc1)c1cc2ccccc2o1 | 6.07 µM |
| CS(=O)(=O)c1ccc2nc(NC(=O)c3ccc(Cl)nc3)sc2c1 | 22.9 µM |
| Cn1c(C(=O)NCCc2c[nH]c3ccccc23)cc2sccc21 | 2.76 µM |
| Oc1ccc(-c2nc3ccccc3s2)c(O)c1 | 5.15 µM |
| COc1cccc(NC(=O)N(C)C[C@H]2Oc3cc(-c4ccccc4F)ccc3S(=O)(=O)N([C@@H](C)CO)C[C@H]2C)c1 | 5.23 µM |
| CCC(=O)Nc1nc(C)c(-c2csc(Nc3ccccn3)n2)s1 | 4.91 µM |
| CC(=O)c1ccc(OCCCC(=O)Nc2ccc(S(=O)(=O)N3CCOCC3)cc2)cc1 | > 38 µM (inactive) |
| Cc1cccc(NC(=O)c2ccc(-c3ccccc3[N+](=O)[O-])o2)c1 | > 38 µM (inactive) |
